In the NIST ThermoML archive (doi:10.1016/j.jct.2010.05.002):
“And” between values parts separate entries of the source, which are not always exact repeats. Equal entries are not always repeated. ± gives the expanded uncertainty stated by the source.

Experiment: molar heat capacity at constant pressure
Settings: 101.33 kPa, Vacuum adiabatic calorimetry

Cc1ccc(-c2ccccc2)cc1 [4-methylbiphenyl]
Settings	molar heat capacity at constant pressure
305.78 K, Crystal 1	244.15 ± 1.5 J/K/mol
306.24 K, Crystal 1	244.23 ± 1.5 J/K/mol
306.7 K, Crystal 1	245.51 ± 1.6 J/K/mol
307.16 K, Crystal 1	246.05 ± 1.5 J/K/mol
307.62 K, Crystal 1	246.17 ± 1.5 J/K/mol
308.08 K, Crystal 1	246.5 ± 1.5 J/K/mol
308.53 K, Crystal 1	247 ± 1.5 J/K/mol
308.98 K, Crystal 1	247.25 ± 1.6 J/K/mol
309.43 K, Crystal 1	248.47 ± 1.6 J/K/mol
309.88 K, Crystal 1	249.54 ± 1.5 J/K/mol
310.32 K, Crystal 1	249.25 ± 1.6 J/K/mol
310.48 K, Crystal 1	249.45 ± 1.6 J/K/mol
310.92 K, Crystal 1	251.3 ± 1.6 J/K/mol
311.36 K, Crystal 1	251.5 ± 1.7 J/K/mol
312.31 K, Crystal 1	256.21 ± 1.9 J/K/mol
313.97 K, Crystal 1	264.83 ± 2.1 J/K/mol
314.78 K, Crystal 1	273.5 ± 3.8 J/K/mol
315.57 K, Crystal 1	291.72 ± 5 J/K/mol
321.28 K, Liquid	289.67 ± 1.8 J/K/mol
322.04 K, Liquid	290.27 ± 1.8 J/K/mol
322.79 K, Liquid	290.67 ± 1.8 J/K/mol
323.53 K, Liquid	290.73 ± 1.8 J/K/mol
324.28 K, Liquid	291.55 ± 1.8 J/K/mol
325.01 K, Liquid	291.28 ± 1.8 J/K/mol
325.74 K, Liquid	291.46 ± 1.8 J/K/mol
326.47 K, Liquid	293.2 ± 1.8 J/K/mol
327.19 K, Liquid	292.01 ± 1.8 J/K/mol
327.91 K, Liquid	293.22 ± 1.8 J/K/mol
328.27 K, Liquid	292.87 ± 1.8 J/K/mol
328.98 K, Liquid	293.44 ± 1.8 J/K/mol
329.68 K, Liquid	293.4 ± 1.8 J/K/mol
330.38 K, Liquid	294.27 ± 1.8 J/K/mol
331.07 K, Liquid	293.42 ± 1.8 J/K/mol
331.76 K, Liquid	294.54 ± 1.8 J/K/mol
332.45 K, Liquid	294.83 ± 1.8 J/K/mol
333.13 K, Liquid	295.75 ± 1.8 J/K/mol
333.8 K, Liquid	295.68 ± 1.8 J/K/mol
334.47 K, Liquid	295.42 ± 1.8 J/K/mol
336.41 K, Liquid	298.11 ± 1.8 J/K/mol
337.06 K, Liquid	298.19 ± 1.8 J/K/mol
337.7 K, Liquid	298.22 ± 1.8 J/K/mol
338.34 K, Liquid	298.05 ± 1.8 J/K/mol
338.57 K, Liquid	298.82 ± 1.9 J/K/mol
339.03 K, Liquid	300.03 ± 1.8 J/K/mol
339.2 K, Liquid	299.1 ± 1.8 J/K/mol
340.45 K, Liquid	299.61 ± 1.8 J/K/mol
341.07 K, Liquid	299.94 ± 1.9 J/K/mol
341.68 K, Liquid	301.45 ± 1.8 J/K/mol
342.29 K, Liquid	300.21 ± 1.8 J/K/mol
342.89 K, Liquid	301.42 ± 1.9 J/K/mol
343.49 K, Liquid	302.55 ± 1.9 J/K/mol
344.08 K, Liquid	301.94 ± 1.9 J/K/mol
344.67 K, Liquid	303 ± 1.9 J/K/mol
345.25 K, Liquid	303.08 ± 1.9 J/K/mol
346.41 K, Liquid	304.11 ± 1.9 J/K/mol
346.98 K, Liquid	304.03 ± 1.9 J/K/mol
347.55 K, Liquid	304.56 ± 1.9 J/K/mol
347.66 K, Liquid	303.66 ± 1.9 J/K/mol
348.78 K, Liquid	306.1 ± 1.9 J/K/mol
349.3 K, Liquid	305.23 ± 1.9 J/K/mol
349.88 K, Liquid	305.3 ± 1.9 J/K/mol
350.42 K, Liquid	305.41 ± 1.9 J/K/mol
350.96 K, Liquid	306.68 ± 1.9 J/K/mol
351.49 K, Liquid	306.74 ± 1.9 J/K/mol
352.02 K, Liquid	307.44 ± 1.9 J/K/mol
352.55 K, Liquid	307.72 ± 1.9 J/K/mol
353.07 K, Liquid	307.31 ± 1.9 J/K/mol
353.59 K, Liquid	308.24 ± 1.9 J/K/mol
354.1 K, Liquid	307.67 ± 1.9 J/K/mol
354.61 K, Liquid	308.41 ± 1.9 J/K/mol
355.12 K, Liquid	308.12 ± 1.9 J/K/mol
355.62 K, Liquid	308.6 ± 1.9 J/K/mol and 307.85 ± 1.9 J/K/mol
356.11 K, Liquid	307.9 ± 1.9 J/K/mol
356.61 K, Liquid	309.76 ± 1.9 J/K/mol
357.09 K, Liquid	308.25 ± 1.9 J/K/mol
357.58 K, Liquid	309.03 ± 1.9 J/K/mol
358.05 K, Liquid	309.85 ± 1.9 J/K/mol
358.53 K, Liquid	309.78 ± 1.9 J/K/mol
359 K, Liquid	309.73 ± 1.9 J/K/mol
359.47 K, Liquid	309.75 ± 1.9 J/K/mol
359.53 K, Liquid	309.84 ± 1.9 J/K/mol
360.39 K, Liquid	310.32 ± 1.9 J/K/mol
360.84 K, Liquid	311.4 ± 1.9 J/K/mol
361.29 K, Liquid	311.64 ± 1.9 J/K/mol
361.74 K, Liquid	310.99 ± 1.9 J/K/mol
362.18 K, Liquid	311.55 ± 1.9 J/K/mol
362.52 K, Liquid	311.51 ± 1.9 J/K/mol
362.62 K, Liquid	311.89 ± 1.9 J/K/mol
362.96 K, Liquid	311.52 ± 1.9 J/K/mol
363.39 K, Liquid	310.96 ± 1.9 J/K/mol
365.49 K, Liquid	313.17 ± 2 J/K/mol
365.9 K, Liquid	312.29 ± 1.9 J/K/mol
366.3 K, Liquid	313.49 ± 2 J/K/mol
366.7 K, Liquid	314.04 ± 1.9 J/K/mol
367.1 K, Liquid	313.11 ± 1.9 J/K/mol
367.49 K, Liquid	314.44 ± 1.9 J/K/mol
367.88 K, Liquid	314.05 ± 1.9 J/K/mol
368.27 K, Liquid	313.75 ± 1.9 J/K/mol
368.45 K, Liquid	313.66 ± 1.9 J/K/mol
368.65 K, Liquid	313.35 ± 1.9 J/K/mol
368.82 K, Liquid	312.67 ± 1.9 J/K/mol
369.2 K, Liquid	314.01 ± 2 J/K/mol
369.57 K, Liquid	314.85 ± 1.9 J/K/mol
369.94 K, Liquid	314.67 ± 1.9 J/K/mol
370.3 K, Liquid	314.64 ± 1.9 J/K/mol
370.66 K, Liquid	315.15 ± 1.9 J/K/mol
371.02 K, Liquid	314.85 ± 1.9 J/K/mol
371.37 K, Liquid	314.45 ± 2 J/K/mol
371.71 K, Liquid	316.2 ± 2 J/K/mol
372.06 K, Liquid	315.57 ± 2 J/K/mol
372.39 K, Liquid	315.1 ± 1.9 J/K/mol
